Measurements published in US10736908B2, “Antiviral aryl-amide phosphodiamide compounds” (Merck Sharp & Dohme Corp., priority 2016, dated 2020).
Where two headings read alike, the source gives them in different places.

Key:
HIV-1 (H9/IIIB strain) = assay: Multiple round HIV-1 infection assay (Viking assay) in MT4-GFP cells; format: cell-based; conditions: HIV-1 replication in MT4-GFP cells
Experimental: Assessing Antiviral Potency in a Multiple Round HIV-1 Infection Assay (Viking Assay)
The antiviral activity of the tenofovir prodrugs of the Examples herein was assessed in an assay that measures the rate of replication of HIV in cell culture, termed the Viking assay (VIral KINetics in Green cells) and performed as follows. HIV-1 replication was monitored using MT4-gag-GFP clone D3 (hereafter designated MT4-GFP), which are MT-4 cells modified to harbor a GFP reporter gene, the expression of which is dependent on the HIV-1 expressed proteins tat and rev. Productive infection of an MT4-GFP cell with HIV-1 results in GFP expression approximately 24 h post-infection. MT4-GFP cells were maintained at 37° C./5% CO2/90% relative humidity in RPMI 1640 supplemented with 10% fetal bovine serum, 100 U/ml penicillin/streptomycin, and 400 μg/ml G418 to maintain the reporter gene. For infections, MT4-GFP cells were placed in the same medium lacking G418 and infected overnight with HIV-1 (H9/IIIB strain) virus at an approximate multiplicity of infection of 0.01 in the same incubation conditions. […] Compound plates were prepared by dispensing compounds dissolved in DMSO into wells of 384 well poly-D-lysine-coated plates (0.2 μl/well) using an ECHO acoustic dispenser. Each compound was tested in a 10-point serial 3-fold dilution (typical final concentrations: 8.4 μM-0.42 nM). Controls included no inhibitor (DMSO only) and a combination of three antiviral agents (efavirenz, indinavir, an in-house integrase strand transfer inhibitor at final concentrations of 4 μM each). Cells were added (50 μL/well) to compound plates and the infected cells were maintained at 37° C./5% CO2/90% relative humidity.
Infected cells were quantified at two time points, ˜48 h and ˜72 h post-infection, by counting the number of green cells in each well using an Acumen eX3 scanner. The increase in the number of green cells over ˜24 h period gives the reproductive ratio, R0, which is typically 5-15 and has been shown experimentally to be in logarithmic phase (data not shown). Inhibition of R0 is calculated for each well, and IC50s determined by non-linear 4-parameter curve fitting.

[1] = Prodrug stability assay in bio-relevant media (FaSSIF with Pancreatin); format: in vitro ADME; conditions: HPLC peak area of prodrug at 5 h divided by that at 0 h; 0.5 mg/mL Pancreatin in FaSSIF, 37° C.
Experimental: Prodrug Stability Assay in Bio-Relevant Media
The following assay was employed to evaluate the stability of the prodrugs in simulated gastrointestinal tract conditions. Preparation of fasted state simulated intestinal fluid (FaSSIF) using Phares SIF Powder was carried out according to protocols from Phare Drug Delivery AG (Baselland, Switzerland). For sample preparation, 10 μL stock solutions (10 mM) of prodrug substance in DMSO was added to 990 μL of 0.5 mg/mL Pancreatin solution (Fisher CAS #8049-47˜6) in FaSSIF. Two samples were prepared for each compound. If the sample was a clear solution, it was directly analyzed by HPLC. If the sample was not clear, the sample was diluted with 100% MeCN, maintained at 37° C. and observed 5 h later. If the sample was clear, HPLC analysis was directly performed. If the sample was still not clear, the sample was diluted with 100% ACN and assayed by HPLC. All the samples were vortexed for 3 min and observed before injection. For the diluted samples, the area is multiplied by a dilution factor when the data is analyzed. The analysis was carried out with an Agilent 1100 series HPLC with autosampler. The column was a Poroshell 120 EC-C18, 4.6×50 mm, 2.7 μm. The flow rate was 1.8 mL/min, and the injection volume was 5 or 10 μL. UV detection was in the range 210-400 nm. The mobile phase consisted of solvent A (water plus 10 mM tetrabutylammonium bromide) and solvent B (acetonitrile) with a gradient of: 90% solvent A at 0 min, changing to 95% solvent B over 6 min, maintaining for 1.5 min, then reverting to 90% solvent A over 1.6 min. The HPLC peak area of the prodrug at 5 h was divided by the HPLC peak area of the prodrug at 0 h, to generate the % claimed parent ratio, which is summarized in Table 2 for gastrointestinal (GI) Tract stability.

[2] = Human immunodeficiency virus 1, IIIB, 50% NHS (normal human serum), read-out: Viking, IC50 (50% NHS)
[3] = Human immunodeficiency virus 1, IIIB, head prints 100% NHS (normal human serum), read-out: Viking, IC50 (100% NHS)
[4] = 50% NHS (normal human serum), read-out: Viking, IC50 (50% NHS)
[5] = head prints 100% NHS (normal human serum), read-out: Viking, IC50 (100% NHS)

Row | SMILES | IC50 (HIV-1 (H9/IIIB strain); [2]) | IC50 (HIV-1 (H9/IIIB strain); [3]) | GI Tract stability [1] | IC50 (HIV-1 (H9/IIIB strain); [4]) | IC50 (HIV-1 (H9/IIIB strain); [5])
1 | CC(C)OC(=O)C(C)(C)NP(=O)(CO[C@H](C)Cn1cnc2c(N)ncnc21)NC(=O)c1ccc(Cl)cc1 (single isomer, unassigned) [Example 1B] | 24.4 nM | 6.9 nM | 95.48% |  | 
2 | CCCCCOC(=O)C(C)(C)NP(=O)(CO[C@H](C)Cn1cnc2c(N)ncnc21)NC(=O)c1ccc(Cl)cc1 (single isomer, unassigned) [Example 3A] |  |  | 99.9% | 33.2 nM | 5.1 nM
3 | CCCCCOC(=O)C(C)(C)NP(=O)(CO[C@H](C)Cn1cnc2c(N)ncnc21)NC(=O)c1ccc(Cl)cc1 (single isomer, unassigned) [Example 3B] |  |  | 75.98% | 10.9 nM | 2.3 nM
4 | CCCOC(=O)C(C)(C)NP(=O)(CO[C@H](C)Cn1cnc2c(N)ncnc21)NC(=O)c1ccc(Cl)cc1 (single isomer, unassigned) [Example 4B] |  |  | 84.76% | 17.6 nM | 3.6 nM
5 | C[C@H](Cn1cnc2c(N)ncnc21)OCP(=O)(NC(=O)c1ccc(Cl)cc1)NC(C)(C)C(=O)OC1CCC1 (single isomer, unassigned) [Example 6B] |  |  | 90.33% | 13.5 nM | 4.1 nM
6 | C[C@H](Cn1cnc2c(N)ncnc21)OCP(=O)(NC(=O)c1ccc(Cl)cc1)NC(C)(C)C(=O)OC1CCOCC1 (single isomer, unassigned) [Example 9B] |  |  | 99.1% | 74.8 nM | 16.9 nM
7 | CC(C)OC(=O)C(C)(C)NP(=O)(CO[C@H](C)Cn1cnc2c(N)ncnc21)NC(=O)c1ccc(F)cc1 (single isomer, unassigned) [Example 10B] |  |  | 99.96% | 89.8 nM | 25.7 nM
8 | CCCCCOC(=O)C(C)(C)NP(=O)(CO[C@H](C)Cn1cnc2c(N)ncnc21)NC(=O)c1ccc(F)cc1 (single isomer, unassigned) [Example 11A] |  | 4.1 nM | 72.61% | 15 nM | 
9 | CCCCCOC(=O)C(C)(C)NP(=O)(CO[C@H](C)Cn1cnc2c(N)ncnc21)NC(=O)c1cccs1 (single isomer, unassigned) [Example 15A] | 34.1 nM | 8.4 nM | 95.44% |  | 
10 | CCCCCOC(=O)C(C)(C)NP(=O)(CO[C@H](C)Cn1cnc2c(N)ncnc21)NC(=O)c1ccc(C)cc1 (single isomer, unassigned) [Example 18B] |  |  | 92.38% | 10.5 nM | 2 nM
